In the assay the test system is patients with major depression. Description: double-blind placebo-controlled crossover study: rapamycin or placebo 2 hours before ketamine infusion, depression severity (MADRS). It is filed as in vivo, human. As to the method:
The present studies address a longstanding question in the field—whether the antidepressant effects of ketamine depend upon its capacity to stimulate a key protein known as the mechanistic target for rapamycin (mTOR). If that is indeed the case, ketamine's effects should be reduced when mTOR is inhibited. To test this hypothesis, a double-blind placebo-controlled crossover study was conducted under fully randomized conditions, whereby one set of patients was treated with the mTOR inhibitor rapamycin, an FDA approved drug that is currently used to treat certain immune disorders and cancers.
In this design, symptomatic antidepressant-treated patients with major depression who have a history of non-response to at least one prior antidepressant trial were recruited and studied over 3 years. Participants completed two ketamine infusion test days separated by at least two weeks. On each ketamine test day, patients were randomized to take a “loading dose” of rapamycin or placebo 2 hours before receiving an intravenous infusion of ketamine. The primary outcome measure of the study was the severity of depression, as measured by the Montgomery Åsberg Depression Rating Scale (MADRS). […]
Depression severity was assessed at baseline, and at 4 h, 24 h, 1 week, and 2 weeks post treatment. […]

Some results are limits rather than exact numbers.

As for `CNC1(c2ccccc2Cl)CCCCC1=O` (racemic) [ketamine, (RS)-2-(2-Chlorophenyl)-2-(methylamino)cyclohexanone], the time to relapse (placebo prior to 0.5 mg/kg iv ketamine, MADRS) is listed as not above 2 weeks. Further, the “duration of benefits produced by ketamine” value (single ketamine infusion without rapamycin) is recorded as “a few days”.

The values above are taken from US11793794B2, “Combination therapy for treating or preventing depression or other mood diseases” (YALE UNIVERSITY, priority 2018, dated 2023).
